Assays:
Assay in all cases: intact protein mass spectrometry
Assay type in all cases: binding
[1] = biological target: T1, BcGH76 (Niallia circulans, UniProt Q9Z4P9, R341Q); conditions: covalent, probe:protein 10:1, 25 mM HEPES pH 7, 100 mM NaCl, 293 K
T1 construct: gene aman6; recombinant GH76 endo-mannanase; borders and tags not given; R341Q crystallisation variant also used
Excerpt: (§1) intact protein mass spectrometry on BcGH76

[2] = biological target: T2, BcGH76 (Niallia circulans, UniProt Q9Z4P9); conditions: probe:protein 10:1, 25 mM HEPES pH 7, 100 mM NaCl, 293 K, 22 h
T2 construct: gene aman6; recombinant GH76 endo-mannanase; borders and tags not given; R341Q crystallisation variant also used
T2 sequence (Q9Z4P9 entry or part of it): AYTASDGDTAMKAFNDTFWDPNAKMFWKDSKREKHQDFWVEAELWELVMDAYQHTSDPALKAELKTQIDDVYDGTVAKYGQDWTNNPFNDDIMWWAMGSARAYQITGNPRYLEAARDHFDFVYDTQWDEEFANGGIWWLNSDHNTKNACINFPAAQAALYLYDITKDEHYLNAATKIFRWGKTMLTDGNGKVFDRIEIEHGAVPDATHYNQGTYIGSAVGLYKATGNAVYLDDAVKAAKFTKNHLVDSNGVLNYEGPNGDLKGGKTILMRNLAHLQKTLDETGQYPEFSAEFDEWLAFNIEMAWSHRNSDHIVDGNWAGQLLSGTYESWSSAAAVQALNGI
Excerpt: as §1

[3] = biological target: T3, BcGH76 (Niallia circulans, UniProt Q9Z4P9, D125N/R341Q); conditions: covalent, probe:protein 10:1, 25 mM HEPES pH 7, 100 mM NaCl, 293 K
T3 construct: gene aman6; recombinant GH76 endo-mannanase; borders and tags not given; R341Q crystallisation variant also used
T3 sequence (Q9Z4P9 entry or part of it D125N/R341Q): as the sequence (Q9Z4P9 entry or part of it) above, with D91N, R307Q counted along it
Excerpt: as §1

[4] = biological target: T4, BcGH76 (Niallia circulans, UniProt Q9Z4P9, D125N); conditions: probe:protein 10:1, 25 mM HEPES pH 7, 100 mM NaCl, 293 K
T4 construct: gene aman6; recombinant GH76 endo-mannanase; borders and tags not given; R341Q crystallisation variant also used
T4 sequence (Q9Z4P9 entry or part of it D125N): as the sequence (Q9Z4P9 entry or part of it) above, with D91N counted along it
Excerpt: as §1

T1 sequence (Q9Z4P9 entry or part of it R341Q): as the sequence (Q9Z4P9 entry or part of it) above, with R307Q counted along it

SMILES	22 h incubation / 1 [1] [%]	covalent labelling [2] [%]	22 h incubation / 2 [3] [%]	22 h incubation / 2 ([4]; covalent) [%]	16 h incubation / 2 ([1]; 22 h) [%]	22 h incubation / 3 [3] [%]	covalent labelling of protein (%) ([4]; 22 h)	16 h incubation / 3 ([1]; 22 h) [%]	percent covalent labelling [2] [%]
OC[C@H]1O[C@H](OC[C@@H]2[C@@H](O)[C@H](O)[C@H](O)[C@H]3O[C@@H]23)[C@@H](O)[C@@H](O)[C@@H]1O [compound 1, α‐1,6‐α‐manno‐cyclophellitol disaccharide 1]	30	30							
OC[C@H]1O[C@H](OC[C@H]2O[C@H](OC[C@@H]3[C@@H](O)[C@H](O)[C@H](O)[C@H]4O[C@@H]34)[C@@H](O)[C@@H](O)[C@@H]2O)[C@@H](O)[C@@H](O)[C@@H]1O [compound 2, trisaccharide 2]		30	85	85	17				
OC[C@H]1O[C@H](OC[C@H]2C[C@H](OC[C@@H]3[C@@H](O)[C@H](O)[C@H](O)[C@H]4O[C@@H]34)[C@@H](O)[C@@H](O)[C@@H]2O)[C@@H](O)[C@@H](O)[C@@H]1O [compound 3, carba‐trisaccharide cyclophellitol 3]						45	44	100	100
